Measured values from the supplement of paper PMC10307832.

How the values were obtained:
Experiment in all cases: relative viability (nuclei count vs DMSO), 5 days (fraction); higher = more cells survive
[1] = compound: C=CC(=O)N1CCC[C@@H](n2nc(-c3ccc(Oc4ccccc4)cc3)c3c(N)ncnc32)C1 [Ibrutinib] + Cc1cc(Nc2cc(N3CCN(C)CC3)nc(Sc3ccc(NC(=O)C4CC4)cc3)n2)n[nH]1 [Tozasertib] (partner 0.1 µM)
Summary of the method: (§1)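 Lung cancer cell lines were pin-tool dosed in 1536-well plates on the day after seeding, with either a lone drug or a fixed anchor-drug dose plus five library-drug doses (not always all listed) in √10 steps. Nuclei were counted on 4× images after 5 days. Relative viability is the ratio of treated-well to vehicle-well nuclei counts, with each value a median of duplicate plates.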

[2] = compound: C=CC(=O)Nc1cc(-n2c(=O)ccc3cnc4ccc(-c5ccc(NS(C)(=O)=O)cc5)cc4c32)ccc1C [BMX-IN-1] + COc1cccc2cc(-c3nc([C@H]4CC[C@H](C(=O)O)CC4)n4ncnc(N)c34)[nH]c12 [OSI-027] (partner 0.5 µM)
Summary of the method: as §1

[3] = compound: C=CCc1cccc(/C=N/NC(=O)CN2CCN(Cc3ccccc3)CC2)c1O [PAC-1] + CS(=O)(=O)N1CCN(Cc2cc3nc(-c4cccc5[nH]ncc45)nc(N4CCOCC4)c3s2)CC1 [Pictilisib] (partner 1 µM)
Summary of the method: as §1

[4] = compound: C=CCc1cccc(/C=N/NC(=O)CN2CCN(Cc3ccccc3)CC2)c1O [PAC-1] + O=C(CCCCCCC(=O)Nc1ccccc1)NO [Vorinostat] (partner 1 µM)
Summary of the method: as §1

NCI-H1355 showed a relative viability ([1]; first compound 0.005 µM) of 0.601, a relative viability ([1]; first compound 0.01581 µM) of 0.518 and a relative viability ([1]; first compound 0.05 µM) of 0.517. For the same cell line, the relative viability ([1]; first compound 0.1581 µM) was 0.62, the relative viability ([1]; first compound 0.5 µM) was 0.491 and the relative viability ([2]; first compound 0.02 µM) was 0.386. For the same cell line, the relative viability ([2]; first compound 0.2 µM) was 0.393, the relative viability ([2]; first compound 0.6325 µM) was 0.482 and the relative viability ([2]; first compound 2 µM) was 0.424. For the same cell line, the relative viability ([3]; first compound 0.02 µM) was 0.386, the relative viability ([3]; first compound 0.06325 µM) was 0.475 and the relative viability ([3]; first compound 0.2 µM) was 0.393. The relative viability ([3]; first compound 2 µM) was 0.492, the relative viability ([4]; first compound 0.02 µM) was 0.61 and the relative viability ([4]; first compound 0.06325 µM) was 0.625. For the same cell line, the relative viability ([4]; first compound 0.2 µM) was 0.572 and the relative viability ([4]; first compound 2 µM) was 0.665.
For LK-2, the relative viability ([1]; first compound 0.01581 µM) was 0.165, the relative viability ([1]; first compound 0.05 µM) was 0.185 and the relative viability ([1]; first compound 0.1581 µM) was 0.168. For the same cell line, the relative viability ([1]; first compound 0.5 µM) was 0.157, the relative viability ([2]; first compound 0.02 µM) was 0.219 and the relative viability ([2]; first compound 0.2 µM) was 0.188. It also gave a relative viability ([2]; first compound 0.6325 µM) of 0.187, a relative viability ([2]; first compound 2 µM) of 0.242 and a relative viability ([3]; first compound 0.02 µM) of 0.612. The relative viability ([3]; first compound 0.06325 µM) was 0.607, the relative viability ([3]; first compound 0.2 µM) was 0.642 and the relative viability ([3]; first compound 2 µM) was 0.502. For the same cell line, the relative viability ([4]; first compound 0.02 µM) was 0.317, the relative viability ([4]; first compound 0.06325 µM) was 0.306 and the relative viability ([4]; first compound 0.2 µM) was 0.301. It also gave a relative viability ([4]; first compound 2 µM) of 0.58.
NCI-H1650 was tested, and the relative viability ([1]; first compound 0.005 µM) was 0.329, the relative viability ([1]; first compound 0.01581 µM) was 0.36 and the relative viability ([1]; first compound 0.05 µM) was 0.4. It also gave a relative viability ([1]; first compound 0.1581 µM) of 0.394, a relative viability ([1]; first compound 0.5 µM) of 0.302 and a relative viability ([2]; first compound 0.02 µM) of 0.69. For the same cell line, the relative viability ([2]; first compound 0.2 µM) was 0.544, the relative viability ([2]; first compound 0.6325 µM) was 0.84 and the relative viability ([2]; first compound 2 µM) was 0.606. For the same cell line, the relative viability ([3]; first compound 0.02 µM) was 0.53, the relative viability ([3]; first compound 0.06325 µM) was 0.608 and the relative viability ([3]; first compound 0.2 µM) was 0.582. For the same cell line, the relative viability ([3]; first compound 2 µM) was 0.515, the relative viability ([4]; first compound 0.02 µM) was 0.507 and the relative viability ([4]; first compound 0.06325 µM) was 0.672. It also gave a relative viability ([4]; first compound 0.2 µM) of 0.52 and a relative viability ([4]; first compound 2 µM) of 0.418.
NCI-H838 was tested, and the relative viability ([1]; first compound 0.005 µM) was 0.261, the relative viability ([1]; first compound 0.01581 µM) was 0.261 and the relative viability ([1]; first compound 0.05 µM) was 0.285. The relative viability ([1]; first compound 0.1581 µM) was 0.27, the relative viability ([1]; first compound 0.5 µM) was 0.277 and the relative viability ([2]; first compound 0.02 µM) was 0.424. For the same cell line, the relative viability ([2]; first compound 0.2 µM) was 0.389, the relative viability ([2]; first compound 0.6325 µM) was 0.438 and the relative viability ([2]; first compound 2 µM) was 0.389. The relative viability ([3]; first compound 0.02 µM) was 0.427, the relative viability ([3]; first compound 0.06325 µM) was 0.526 and the relative viability ([3]; first compound 0.2 µM) was 0.387. It also gave a relative viability ([3]; first compound 2 µM) of 0.455, a relative viability ([4]; first compound 0.02 µM) of 0.68 and a relative viability ([4]; first compound 0.06325 µM) of 0.72. For the same cell line, the relative viability ([4]; first compound 0.2 µM) was 0.782 and the relative viability ([4]; first compound 2 µM) was 0.745.
For EMC-BAC-2, the relative viability ([1]; first compound 0.005 µM) was 0.303, the relative viability ([1]; first compound 0.01581 µM) was 0.295 and the relative viability ([1]; first compound 0.05 µM) was 0.31. For the same cell line, the relative viability ([1]; first compound 0.1581 µM) was 0.325, the relative viability ([1]; first compound 0.5 µM) was 0.286 and the relative viability ([2]; first compound 0.02 µM) was 0.363. It also gave a relative viability ([2]; first compound 0.2 µM) of 0.363, a relative viability ([2]; first compound 0.6325 µM) of 0.421 and a relative viability ([2]; first compound 2 µM) of 0.403. The relative viability ([3]; first compound 0.02 µM) was 0.549, the relative viability ([3]; first compound 0.06325 µM) was 0.536 and the relative viability ([3]; first compound 0.2 µM) was 0.566. For the same cell line, the relative viability ([3]; first compound 2 µM) was 0.555, the relative viability ([4]; first compound 0.02 µM) was 0.414 and the relative viability ([4]; first compound 0.06325 µM) was 0.531. For the same cell line, the relative viability ([4]; first compound 0.2 µM) was 0.774 and the relative viability ([4]; first compound 2 µM) was 0.478.
With SW 1573 the relative viability ([1]; first compound 0.005 µM) was 0.189, the relative viability ([1]; first compound 0.01581 µM) was 0.169 and the relative viability ([1]; first compound 0.05 µM) was 0.195. The relative viability ([1]; first compound 0.1581 µM) was 0.174, the relative viability ([1]; first compound 0.5 µM) was 0.184 and the relative viability ([2]; first compound 0.02 µM) was 0.882. For the same cell line, the relative viability ([2]; first compound 0.2 µM) was 0.778, the relative viability ([2]; first compound 0.6325 µM) was 0.736 and the relative viability ([2]; first compound 2 µM) was 0.0649. It also gave a relative viability ([3]; first compound 0.02 µM) of 0.475, a relative viability ([3]; first compound 0.06325 µM) of 0.448 and a relative viability ([3]; first compound 0.2 µM) of 0.394. It also gave a relative viability ([3]; first compound 2 µM) of 0.457, a relative viability ([4]; first compound 0.02 µM) of 0.693 and a relative viability ([4]; first compound 0.06325 µM) of 0.649. For the same cell line, the relative viability ([4]; first compound 0.2 µM) was 0.571 and the relative viability ([4]; first compound 2 µM) was 0.861.
Cell Line CAL-12T has a relative viability ([1]; first compound 0.005 µM) of 0.324, a relative viability ([1]; first compound 0.01581 µM) of 0.309 and a relative viability ([1]; first compound 0.05 µM) of 0.268. For the same cell line, the relative viability ([1]; first compound 0.1581 µM) was 0.365, the relative viability ([1]; first compound 0.5 µM) was 0.151 and the relative viability ([2]; first compound 0.02 µM) was 0.712. It also gave a relative viability ([2]; first compound 0.2 µM) of 0.665, a relative viability ([2]; first compound 0.6325 µM) of 0.659 and a relative viability ([2]; first compound 2 µM) of 0.679. It also gave a relative viability ([3]; first compound 0.02 µM) of 0.202, a relative viability ([3]; first compound 0.06325 µM) of 0.44 and a relative viability ([3]; first compound 0.2 µM) of 0.482. It also gave a relative viability ([3]; first compound 2 µM) of 0.568, a relative viability ([4]; first compound 0.02 µM) of 0.89 and a relative viability ([4]; first compound 0.06325 µM) of 0.793. It also gave a relative viability ([4]; first compound 0.2 µM) of 0.688 and a relative viability ([4]; first compound 2 µM) of 0.712.
Cell Line NCI-H2009 has a relative viability ([1]; first compound 0.005 µM) of 0.737, a relative viability ([1]; first compound 0.01581 µM) of 0.778 and a relative viability ([1]; first compound 0.05 µM) of 0.77. For the same cell line, the relative viability ([1]; first compound 0.1581 µM) was 0.788, the relative viability ([1]; first compound 0.5 µM) was 0.831 and the relative viability ([2]; first compound 0.02 µM) was 0.689. The relative viability ([2]; first compound 0.2 µM) was 0.651, the relative viability ([2]; first compound 0.6325 µM) was 0.639 and the relative viability ([2]; first compound 2 µM) was 0.386. It also gave a relative viability ([3]; first compound 0.02 µM) of 0.832, a relative viability ([3]; first compound 0.06325 µM) of 0.866 and a relative viability ([3]; first compound 0.2 µM) of 0.792. For the same cell line, the relative viability ([3]; first compound 2 µM) was 0.789, the relative viability ([4]; first compound 0.02 µM) was 0.669 and the relative viability ([4]; first compound 0.06325 µM) was 0.685. The relative viability ([4]; first compound 0.2 µM) was 0.732 and the relative viability ([4]; first compound 2 µM) was 0.741.
HARA was tested, and the relative viability ([1]; first compound 0.005 µM) was 0.0994, the relative viability ([1]; first compound 0.01581 µM) was 0.117 and the relative viability ([1]; first compound 0.05 µM) was 0.0863. For the same cell line, the relative viability ([1]; first compound 0.1581 µM) was 0.0992, the relative viability ([1]; first compound 0.5 µM) was 0.096 and the relative viability ([2]; first compound 0.02 µM) was 0.403. The relative viability ([2]; first compound 0.2 µM) was 0.544, the relative viability ([2]; first compound 0.6325 µM) was 0.562 and the relative viability ([2]; first compound 2 µM) was 0.457. For the same cell line, the relative viability ([3]; first compound 0.02 µM) was 0.414, the relative viability ([3]; first compound 0.06325 µM) was 0.376 and the relative viability ([3]; first compound 0.2 µM) was 0.323. For the same cell line, the relative viability ([3]; first compound 2 µM) was 0.413, the relative viability ([4]; first compound 0.06325 µM) was 0.56 and the relative viability ([4]; first compound 0.2 µM) was 0.529. For the same cell line, the relative viability ([4]; first compound 2 µM) was 0.526.
Cell Line HCC-827 has a relative viability ([1]; first compound 0.005 µM) of 0.396, a relative viability ([1]; first compound 0.01581 µM) of 0.39 and a relative viability ([1]; first compound 0.05 µM) of 0.513. For the same cell line, the relative viability ([1]; first compound 0.1581 µM) was 0.437, the relative viability ([1]; first compound 0.5 µM) was 0.224 and the relative viability ([2]; first compound 0.02 µM) was 0.785. The relative viability ([2]; first compound 0.2 µM) was 0.968, the relative viability ([2]; first compound 0.6325 µM) was 0.828 and the relative viability ([2]; first compound 2 µM) was 0.778. The relative viability ([3]; first compound 0.02 µM) was 1.12, the relative viability ([3]; first compound 0.06325 µM) was 1.01 and the relative viability ([3]; first compound 0.2 µM) was 0.99. It also gave a relative viability ([3]; first compound 2 µM) of 0.983, a relative viability ([4]; first compound 0.02 µM) of 0.903 and a relative viability ([4]; first compound 0.06325 µM) of 0.857. It also gave a relative viability ([4]; first compound 0.2 µM) of 0.752 and a relative viability ([4]; first compound 2 µM) of 0.841.
